# Laboratory results published in patent US20210277009A1, “PRMT5 INHIBITORS” (Merck Sharp & Dohme Corp., priority 2018, published 2021).
# Read-outs that look alike come from different tables or passages of the source.
# Key:
# [1] = biological target: T1, PRMT5-MEP50 enzyme complex (Homo sapiens, UniProt O14744); assay: PRMT5-MEP50 Enzyme Methylation Assay; format: biochemical
# T1 construct: 1.25 nM of Full-length (FL)-PRMT5-MEP50 enzyme complex; made in house; host or cells: baculovirus-transfected Sf21 cells
# Protocol: PRMT5-MEP50 biochemical assay is a direct measurement of the methylation activity of the enzyme complex on a short peptide substrate derived from the N-terminus of H4 histone. Methylation experiment is performed with recombinant PRMT5-MEP50 protein complex. The assessment of inhibitory effect of small molecules is measured by tire effectiveness of the compounds to inhibit tins reaction (EC50).
# In this assay, the potency (EC50) of each compound was determined from a twenty-point (1:2 serial dilution; top compound concentration of 100000 nM) titration curve using the following outlined procedure. To each well of a white ProxiPlus 384 well-plate, 100 nL of compound (1% DMSO in final assay volume of 10 μL) was dispensed, followed by the addition of 8 μL of 1× assay buffer (50 mM Bicine pH 8.0, 1 mM DTT, 0.004% Tween20, 0.01% BSA) containing 1.25 nM of Full-length (FL)-PRMT5-MEP50 enzyme complex (recombinant proteins from baculovirus-transfected Sf21 cells: FL-PRMT5; MW=[…] and FL-MEP50; MW=38614) and 1 μL of 150 μM S-(5′-Adenosyl)-L-Methionine Chloride (SAM). Plates were sealed and placed in a 37° C. humidified chamber for a 60 minutes pre-incubation with compound. Subsequently, each reaction was initiated by the addition of 1 μL 1× assay buffer containing 750 nM biotinylated H4R3(Mel) peptide. The final reaction in each well of 10 μL consists of 1.0 nM PRMT5-MEP50, 75 nM biotinylated-peptide, and […] SAM. Methylation reactions were allowed to proceed for 150 minutes in a sealed plate at 37° C. Reactions were immediately quenched by the addition of 1 μL of 5% formic acid. Plates were then frozen and shipped to SAMDITM Tech Inc. to determine the percent conversion from H4R3(Mel) to H4R3(Me2). Dose-response curves were generated by plotting percent effect (% product conversion; Y-axis) vs. Log 10 compound concentrations (X-axis). EC50 values were determined by non-linear regression according to models for either sigmoidal (4 parameters) or biphasic (7 parameters) dose-response curves.
# [2] = tested on: symmetric dimethylation of arginine (SDMA) of PRMT5 substrates in MCF-7 cells; assay: PRMT5 Cell Target Engagement (TE) Assay; format: cell-based; conditions: Homo sapiens, MCF7, 72 h, treated for 3 days, nuclear SDMA by high content imaging, top concentration 10000 nM
# From the text: The PRMT5 TE assay is a biomarker assay for identifying compounds that inhibit symmetric dimethylation of arginine (SDMA) of PRMT5 substrates. The following substrates have been reported for PRMT5: histone H2A and H4 R3, Histone H3 R2, Histone H3 R8, spliceosome Sm proteins, ribosomal protein RPS10, p53, FEN1, nudeoplasmin, nucleolin, EGFR and EBNA. The assay will focus on detecting symmetrically dimethylated nuclear proteins using high content imaging technology. Detection of the expression of symmetrically dimethylated nuclear proteins is through a mixture of primary rabbit monoclonal antibodies to SDMA (CST 13222), which in turn recognized by an Alexafluor 488 dye-conjugated anti-rabbit IgG secondary antibody. The IN Cell Analyzer 2200 or Opera-Phenix measures nuclear Alexafluor 488 fluorescent dye intensity that is directly related to the level of expression of symmetrically dimethylated nuclear proteins at the single cell level. Nuclear AF488 dye intensities are compared to the mean value for DMSO treated cells (MIN) to report percent of inhibition for each compound-treated well.
# In this assay, the cell potency (EC50) of each compound was determined from a ten point (1:3 serial dilution; top compound concentration of 10000 nM) titration curve using the following outlined procedure. Each well of a BD falcon collagen coated black/clear bottom 384-well plate was seeded with 4000 MCF-7 cells in 30 μl media and allowed to attach for 5 h. Media is ATCC-formulated Eagle's Minimum Essential Medium, Catalog No. 30-2003. To make the complete growth medium, the following components were added to the base medium: 0.01 mg/ml human recombinant insulin; fetal bovine serum to a final concentration of 10%. Additional 30 μl of media containing 2× compounds were added to each well. Cells were treated for 3 days in 37° C. CO2 incubator. On day 3, cells were fixed with Cytofix, permeablized with 0.4% Triton-X-100/Cytofix, and washed with D-PBS without Ca/Mg. Cells were blocked with Licor Odessey blocking reagent for 1 h at room temperature, followed by incubation with anti-SDMA (1:1000) antibody at 4° C. overnight. 1° antibody was removed, followed by three washings with DPBS without Ca/Mg and 0.05% Tween20. Hoechst (5 μg/ml), Cell Mask deep stain (1:2000) and Alexa488-conjugated goat anti-rabbit IgG (2 μg/mL) was added for 1 hour at room temperature. A final washing step (three washes) was performed before sealing plate for imaging on In Cell Analyzer 2200 or Opera-Phenix. Images from analyzer were uploaded to Columbus (at WP or BOS) for image analysis. IC50 values were determined by 4 parameters robust fit of percent fluorescence units vs. (Logic) compound concentrations.
# [3] = single EC50 from 4 parameters single site sigmoidal model, or first EC50 of 7 parameters biphasic model, 1.0 nM PRMT5-MEP50, H4R3(Me1) peptide, SAM, read-out: Enzyme Methylation Assay (EC50 or EC50_1)
# T1 sequence (O14744 whole entry): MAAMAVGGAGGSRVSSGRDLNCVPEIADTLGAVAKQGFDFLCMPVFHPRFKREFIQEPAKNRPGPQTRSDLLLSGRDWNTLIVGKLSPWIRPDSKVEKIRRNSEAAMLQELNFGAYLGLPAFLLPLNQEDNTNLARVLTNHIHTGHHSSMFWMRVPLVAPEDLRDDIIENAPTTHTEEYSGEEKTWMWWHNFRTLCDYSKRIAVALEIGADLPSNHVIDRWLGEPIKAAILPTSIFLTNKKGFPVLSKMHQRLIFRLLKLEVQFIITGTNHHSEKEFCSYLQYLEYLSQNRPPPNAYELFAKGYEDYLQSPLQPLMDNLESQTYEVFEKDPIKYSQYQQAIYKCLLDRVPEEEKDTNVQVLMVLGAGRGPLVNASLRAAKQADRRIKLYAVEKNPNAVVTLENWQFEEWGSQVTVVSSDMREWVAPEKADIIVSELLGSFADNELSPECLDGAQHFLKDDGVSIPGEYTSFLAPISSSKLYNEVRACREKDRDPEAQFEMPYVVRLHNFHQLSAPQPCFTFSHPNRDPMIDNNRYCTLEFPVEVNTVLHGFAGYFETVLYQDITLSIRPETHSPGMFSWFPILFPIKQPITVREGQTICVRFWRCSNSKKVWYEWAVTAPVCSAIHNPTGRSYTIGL
# T1 sequence (Q9BQA1 whole entry partner): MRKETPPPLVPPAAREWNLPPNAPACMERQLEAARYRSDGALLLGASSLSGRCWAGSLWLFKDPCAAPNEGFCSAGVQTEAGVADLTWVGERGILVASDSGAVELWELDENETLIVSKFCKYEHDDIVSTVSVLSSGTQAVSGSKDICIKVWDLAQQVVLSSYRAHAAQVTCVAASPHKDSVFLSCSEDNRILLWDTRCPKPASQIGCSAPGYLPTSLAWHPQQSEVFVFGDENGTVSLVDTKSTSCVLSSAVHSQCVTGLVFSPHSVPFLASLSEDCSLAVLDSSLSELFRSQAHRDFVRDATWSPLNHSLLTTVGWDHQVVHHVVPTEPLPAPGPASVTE
SMILES,"EC50 [1, 3]",EC50 [2],"EC50 ([1]; second EC50 of 7 parameters biphasic model, read-out: Enzyme Methylation Assay (EC50_2))"
"COc1ncnc2c1ccn2[C@@H]1S[C@H](COc2ccc3ccc(NCC4CC4)nc3c2)[C@@H](O)[C@H]1O [Example 8, (2R,3S,4R,5R)-2-(((2-((cyclopropylmethyl)amino)quinolin-7-yl)oxy)methyl)-5-(4-methoxy-7H-pyrrolo[2,3-d]pyrimidin-7-yl)tetrahydrothiophene-3,4-diol]",38300 nM,3710 nM,–
Nc1nc2cc(OC[C@H]3S[C@@H](n4ccc5c(Cl)ncnc54)[C@H](O)[C@@H]3O)ccc2cc1Cl [Example 5],26.2 nM,≥ 10000 nM,–
"Nc1nc2cc(CC[C@@H]3S[C@@H](n4ccc5c(N)ncnc54)[C@H](O)[C@@H]3O)ccc2cc1Br [Example 13, (2S,3S,4R,5R)-2-(2-(2-amino-3-bromoquinolin-7-yl)ethyl)-5-(4-amino-7H-pyrrolo[2,3-d]pyrimidin-7-yl)tetrahydrothiophene-3,4-diol]",0.3 nM,3.2 nM,–
"Cc1ncnc2c1ccn2[C@@H]1S[C@H](COc2ccc3ccc(NCC4CC4)nc3c2)[C@@H](O)[C@H]1O [Example 9, (2R,3S,4R,5R)-2-(((2-((cyclopropylmethyl)amino)quinolin-7-yl)oxy)methyl)-5-(4-methyl-7H-pyrrolo[2,3-d]pyrimidin-7-yl)tetrahydrothiophene-3,4-diol]",14 nM,58.4 nM,2540 nM
"Nc1nc2cc(CC[C@H]3S[C@@H](n4ccc5c(N)ncnc54)[C@H](O)[C@@H]3O)ccc2cc1Br [Example 12, (2R,3S,4R,5R)-2-(2-(2amino-3bromoquinolin-7-yl)ethyl)-5-(4-amino-7H-pyrrolo[2,3-d]pyrimidin-7-yl)tetrahydrothiophene-3,4-diol]",0.7 nM,1.3 nM,–
"Nc1nc2cc(CC[C@H]3S[C@@H](n4ccc5c(N)ncnc54)[C@H](O)[C@@H]3O)ccc2cc1Cl [Example 43, (2R,3S,4R,5R)-2-(2-(2-amino-3-chloroquinolin-7-yl)ethyl)-5-(4-amino-7H-pyrrolo[2,3-d]pyrimidin-7-yl)tetrahydrothiophene-3,4-diol]",0.7 nM,2.4 nM,–
